Measured values as given in US20160206633A1, “dhS1P AND USE OF SAME AS AN ANTICANCER THERAPEUTIC AND IMMUNOMODULATOR” (Penn State Research Foundation, Inc., priority 2013, published 2016).

Key:
[1] = system: isolated IMCs (GEMM colonies, multipotent myeloid progenitor cells); assay: CFU-GEMM colony forming assay of isolated IMCs; format: cell-based, athymic nude mice; conditions: 5 μM, GEMM-supportive semi-solid media, 3 weeks of culture
Description: (A) Splenic IMCs (Gr-1+CD11b+, also defined as MDSCs: myeloid-derived suppressor cells) were isolated from MDA-MB-231 tumor-bearing athymic nude mice and exposed to BSA, S1P (5 μM), or dhS1P (5 μM). Following 24-hour culture incubation, cells were labeled with specific antibodies and analyzed by multicolor flow cytometry (red: IMCs; blue: possible B-cells). (B) Splenic IMCs were isolated from MDA-MB-231 tumor-bearing athymic nude mice and cultured (5×10^4 cells/mL) in GEMM-supportive semi-solid media with BSA, S1P (5 μM), or dhS1P (5 μM). GEMM colonies (multipotent myeloid progenitor cells) were visualized and counted after 3 weeks of culture. ANOVA, *p<0.01 compared to no treatment or BSA-treatment, ***p<0.001 compared to S1P-treatment, n≧3. (C) Splenic hematopoietic progenitors (Lineage-Sca-1+CD117+) were isolated from MDA-MB-231 tumor-bearing athymic nude mice and exposed to BSA, S1P (5 μM), or dhS1P (5 μM). Following 24-hour culture incubation, cells were labeled with specific antibodies and analyzed by multicolor flow cytometry. […]
Isolated IMCs from the spleens of tumor-bearing athymic nude mice were cultured (5×10^4 cells/mL) in GEMM-supportive complete (mouse) methylcellulose media (R&D Systems, Minneapolis, Minn.), according to the manufacturer's instructions, with BSA, S1P (5 μM), or dhS1P (5 μM). GEMM colonies were visualized and counted after 3 weeks of culture.

[2] = system: murine Panc-02 pancreatic cancer cells; assay: Injection of BSA-conjugated sphingolipids into mice with subcutaneous Panc-02 tumors; format: in vivo; conditions: subcutaneous Panc-02 in C57BL/6J mice; injection every other day, 0.1 mL of 100 μM, BSA carrier
Description: (A) Splenic IMCs (Gr-1+CD11b+, also defined as MDSC: myeloid-derived suppressor cells) were isolated from subcutaneous human MDA-MB-231 breast tumor-bearing athymic nude mice, treated with or without dhS1P (to induce the expansion of CD19+CD45R B220+ cells: B-cells), and adoptively transferred into subcutaneous human MDA-MB-231 breast tumor-bearing athymic nude mice before monitoring tumor growth. ANOVA, **p<0.05 compared to PBS control, n≧6. (B) Splenic IMCs were isolated from orthotopic human BxPC-3 pancreatic tumor-bearing athymic nude mice, treated with or without dhS1P, and adoptively transferred into orthotopic human BxPC-3 pancreatic tumor-bearing athymic nude mice before monitoring survival. Logrank test, *p<0.05, n=5. (C) Tumor growth following BSA (lipid carrier control), sphingosine-1-phosphate (S1P), or dhS1P injection every other day, was monitored in C57BL/6J mice engrafted with subcutaneous murine Panc-02 pancreatic cancer cells. ANOVA, **p<0.05 compared to BSA control, n≧6.
Orthotopic pancreatic cancer and subcutaneous breast cancer tumors were established in athymic nude, NOD.CB17-Prkdcscid/J, BALB/cJ, or C57BL/6J mice as previously described (8, 9), with minor modifications. All cell lines used in animal and cellular studies, prior to any modification, were originally obtained from the American Type Culture Collection (Manassas, Va.). For orthotopic BxPC-3-GFP human pancreatic cancer xenografts, 4-6 week old female athymic mice were fully anesthetized with a mixture of ketamine-HCl (129 mg/kg) and xylazine (4 mg/kg) injected intramuscularly. A small incision was made in the left flank, the peritoneum was dissected and the pancreas exposed. Using a 27-gauge needle, 2.5×10^6 cells, prepared in 0.1 mL of Hank's balanced salt solution, were injected into the pancreas. For experimental lung-metastatic osteosarcoma xenografts, 4-6 week old female athymic nude mice were tail vein-injected with 2.5×10^6 human SAOS-2-LM7 cells. […] Tumor size was measured by caliper measurement. […]

[3] = system: human MDA-MB-231 breast cancer cells; assay: PhotoImmunoNanoTherapy, subcutaneous MDA-MB-231 breast tumor growth in athymic nude mice; format: in vivo; conditions: subcutaneous MDA-MB-231 in athymic nude mice; one injection, NIR laser 24 h later
Description: To evaluate the antitumor efficacy of PhotoImmunoNanoTherapy, two murine models of breast cancer were utilized to study effects in T-cell-competent hosts (murine 410.4 cells in BALB/cJ mice) and T-cell-deficient hosts (human MDA-MB-231 cells in athymic nude mice; murine 410.4 cells in NOD.CB17-Prkdcscid/J mice), in addition to a subcutaneously engrafted model of pancreatic cancer (murine Panc-02 cells in C57BL/6J mice), an orthotopic pancreatic cancer model (human BxPC-3 cells in athymic nude mice), and an experimental model of lung-metastatic osteosarcoma (human SAOS-2-LM7 cells in athymic nude mice). Treatments were initiated one week following tumor establishment and consisted of injections of ICG-CPSNPs or controls followed 24 h later by NIR laser treatment of the tumor location to allow adequate tumor accumulation of PEGylated ICGCPSNPs. […] In the most elaborate study, MDA-MB-231 tumor growth was abrogated in athymic nude mice receiving PEGylated ICG-CPSNPs but not PBS or PEGylated ghost CPSNPs (FIG. 1A). Furthermore, MDA-MB-231 tumor growth was not blocked by non-PEGylated (citrate-terminated) ICG-CPSNPs or free ICG.
Orthotopic pancreatic cancer and subcutaneous breast cancer tumors were established in athymic nude, NOD.CB17-Prkdcscid/J, BALB/cJ, or C57BL/6J mice as previously described (8, 9), with minor modifications. […] Tumor size was measured by caliper measurement. […]

CCCCCCCCCCCCC/C=C/[C@@H](O)[C@@H](N)COP(=O)(O)O [S1P, sphingosine-1-phosphate, reference compound]
CFU-GEMM colony formation [1]: dramatically augmented
Tumor growth [2]: augmented tumor growth

CC1(C)C(/C=C/C=C/C=C/C=C2\N(CCCCS(=O)(=O)O)c3ccc4ccccc4c3C2(C)C)=[N+](CCCCS(=O)(=O)[O-])c2ccc3ccccc3c21 [free ICG, indocyanine green]
Tumor growth [3]: not blocked
